In PubChem BioAssay (NCI):
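Exposure lasted 48 hours, with cells grown in 96-well plates and compounds tested at five concentrations. At the TGI there is no net growth.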

Tests used:
Assay in all cases: growth of human tumour cells (NCI), 48 h
ACHN renal = test system: ACHN renal
HCT-15 colon = test system: HCT-15 colon
HOP-62 NSCLC = test system: HOP-62 NSCLC
M14 melanoma = test system: M14 melanoma
MDA-MB-231 breast = test system: MDA-MB-231 breast
MOLT-4 leukemia = test system: MOLT-4 leukemia
OVCAR-4 ovarian = test system: OVCAR-4 ovarian
SF-268 CNS = test system: SF-268 CNS
SF-295 CNS = test system: SF-295 CNS
SNB-19 CNS = test system: SNB-19 CNS
TK-10 renal = test system: TK-10 renal

Compound	TGI (ACHN renal) [µM]	TGI (HCT-15 colon) [µM]	TGI (HOP-62 NSCLC) [µM]	TGI (M14 melanoma) [µM]	TGI (MDA-MB-231 breast) [µM]	TGI (MOLT-4 leukemia) [µM]	TGI (OVCAR-4 ovarian) [µM]	TGI (SF-268 CNS) [µM]	TGI (SF-295 CNS) [µM]	TGI (SNB-19 CNS) [µM]	TGI (TK-10 renal) [µM]
O[C@@H]1C[C@@H]2N[C@@](O)(C[C@@H]2O)[C@H]1O	> 100	> 100	> 100	> 100	> 100	> 100	> 100	> 100	> 100	> 100	> 100
C=CC[C@H]1[C@H](O[Si](C)(C)C(C)(C)C)C=CC(=O)[C@@H]1CC(=O)N(Cc1ccccc1)Cc1ccccc1	> 100	35.6	> 100	> 100	41.2	> 100	> 100	93.4	> 100	> 100	85.6
COc1cc2c(cc1OC)CC(N=[N+]=[N-])c1cc(OC)c(OC)cc1/C=C\2 (configuration not stated)	> 100	> 100	> 100	> 100	> 100	> 100	> 100	> 100	> 100	> 100	> 100
c1ccc(CSc2nc(N3CCOCC3)c3cn[nH]c3n2)cc1	90.9	> 100	> 100	49	39.4	> 100	> 100	58.8	78	87.4	51.6
COC(=O)/C=c1/c2ccccc2n2nc3ccccc3c12	> 100	> 100	> 100	> 100	91.3	35.3	> 100	> 100	> 100	> 100	> 100
Cc1ccc2c(n1)C(=O)c1ccccc1C2=O	> 100	82.9	> 85.4	> 75.5	75.5	> 88.7	55.4	> 100	> 83.3	> 87.9	> 100
Cn1c(-c2cccs2)cc(-c2cccs2)c1-c1ccsc1	> 100	> 100	> 100	> 100	> 100	> 100	> 100	> 100	> 100	> 100	> 100
Cc1ccc(Nc2cc(=O)[nH]c(=S)[nH]2)cc1	> 100	> 100	> 100	> 100	> 100	> 100	> 100	> 100	> 100	> 100	> 100
CC(C)C1OC(=O)/C=C/C=C/C=C/C=C/C=C/CC(O)CC(O)CC(O)CC(O)CC(O)CC(O)CC(O)CC(O)/C=C/C1C (configuration not stated)	> 100	> 100	> 100	> 100	> 100	> 100	> 100	> 100	> 100	> 100	> 100
CNC(=S)N/N=C/c1cccc(C)n1	> 96.5	> 100	46.7	47.8	> 89	> 87	> 100	> 76	> 100	> 100	> 100
COC(=O)c1c(C)cccc1CC1Cc2c(C)cccc2C1=O (configuration not stated)	> 100	> 100	> 100	> 100	> 100	79.1	> 100	> 100	> 100	> 100	> 100
CC(C)=CCC/C(C)=C/CC/C(C)=C/CC/C(C)=C/CC/C(C)=C\CC/C(C)=C/CC/C(C)=C/CC/C(C)=C/Cc1cc(O)ccc1O	> 39.8	> 33.4	29.5	1.25	> 55.2	8.34	7.4	5.21	3.76	> 43.6	> 29.4
COC(=O)/N=[N+](\[O-])C(c1ccc(OC)cc1)C1CCCCC1 (configuration not stated)	16.3	23.5	16.9	13.1	32.2	31.6	> 100	37.9	16.4	> 54.2	25.9
O=C(CSCC(=O)N/N=C\c1ccc(-c2ccccc2)cc1)N/N=C\c1ccc(-c2ccccc2)cc1	55.9	> 100	51.9	91.2	25.2	> 100	46.5	53.9	40.9	> 100	64.2
Cc1nnc2n1-c1ccccc1C(=S)N1CSCC21 (configuration not stated)	> 100	> 100	> 100	> 100	> 100	> 100	> 100	> 100	> 100	> 100	> 100
N#CC1(C#N)NC(c2ccsc2)C(C#N)(C#N)NC1c1ccsc1 (configuration not stated)	> 100	> 100	> 100	> 100	> 100	> 100	> 100	> 100	> 100	> 100	> 100
Nc1nc(Cl)cc(Nc2cc(Cl)cc(Cl)c2)n1	56.8	42.6	55.1	35.4	36.3	47.6	46.6	40.4	38.4	47.5	45
CCCCOC(=O)C(O)Cc1ccoc1 (configuration not stated)	> 100	> 100	> 100	> 100	> 100	> 100	> 100	> 100	> 100	> 100	> 100
C[Si](C)(OCCS(=O)(=O)O)C1S(=O)(=O)OCCOS1(=O)=O	> 100	> 100	> 100	> 100	> 100	> 100	> 100	> 100	31.8	> 100	> 100

Compound	TGI (ACHN renal) [µM]	TGI (HCT-15 colon) [µM]	TGI (HOP-62 NSCLC) [µM]	TGI (M14 melanoma) [µM]	TGI (MDA-MB-231 breast) [µM]	TGI (MOLT-4 leukemia) [µM]	TGI (OVCAR-4 ovarian) [µM]	TGI (SF-268 CNS) [µM]	TGI (SF-295 CNS) [µM]	TGI (SNB-19 CNS) [µM]	TGI (TK-10 renal) [µM]
N/C(=N/n1c(=S)[nH]c2ccccc2c1=O)Nn1c(=S)[nH]c2ccccc2c1=O	> 100	55.5	93.1	23.8	> 100	31	> 100	56.8	> 100	> 100	> 100
COCCOCCOC1=C(Cl)C(=O)c2c(O)ccc(O)c2C1=O	3.5	3.42	7.3	3.29	4.12	2.37	4.36	7.26	27.1	27.1	3.25
Cc1nc2c(sc3nc4ccccc4n32)c(=O)[nH]1	> 100	> 100	> 100	> 100	> 100	> 100	> 100	> 100	> 100	> 100	> 100
CN(CCc1ccc(N)cc1)[C@H]1CCCC[C@H]1N1CCCC1	> 100	> 100	> 100	> 100	> 100	> 100	> 100	> 100	> 100	> 100	> 100
Cc1cccc2c1NC(=S)[C@@H]1CCCN1C2=O	> 100	> 100	> 100	> 100	> 100	> 100	> 100	> 100	> 100	> 100	> 100
COc1ccc2c3c1OC1c4[nH]c5ccccc5c4CC4(O)C(C2)N(C)CCC314 (configuration not stated)	75.6	> 100	> 100	32.3	77.4	54.1	> 100	> 100	> 100	> 100	50.2
C(=C\C(SCc1ccccc1)SCc1ccccc1)/c1ccccc1	> 10	> 10	> 10	> 10	> 10	> 10	> 10	> 10	> 10	> 10	> 10
COc1ccc(-c2cc(-c3cc(OC)c(OC)c(OC)c3)cc(-c3cc4ccccc4oc3=O)n2)cc1	16.3	> 100	5.8	> 100	8.07	> 100	21.4	16.7	19.4	37.7	21.1
C=CC[C@H](C)CCC(=O)N1[C@H]2CC3CC[C@@]2(CS1(=O)=O)C3(C)C	> 100	74.9	> 100	> 100	> 100	68.1	> 100	> 100	> 100	> 100	> 100
CSc1ccc(/C=C2\N=C(c3ccccc3)N(c3nc4ccc(Sc5ccccc5)cc4[nH]3)C2=O)cc1	> 100	> 86.2	65.9	32.5	55.5	80.9	> 100	> 77.8	50.5	> 89.2	60.8
COc1ccc(N=C(Nc2ccc(OC)cc2)C(=Nc2ccc(OC)cc2)Nc2ccc(OC)cc2)cc1	> 100	> 100	> 100	> 100	> 100	> 100	> 100	> 100	> 100	> 100	> 100
CC1C[C@]2(C)C(=O)N(c3ccccc3)C(=N)[C@@H]2N(C)c2ccccc21 (some centres not stated)	> 100	> 100	> 100	> 100	> 100	> 100	> 100	> 100	> 100	> 100	> 100
COc1ccc2c(c1)c1c(n2CCN2CCCCC2)-c2ccccc2CC1	33.3	24.5	34.7	28.7	31.8	40.7	42	30	28.4	46.9	27.6
Cc1cc2c(c(C=NCc3ccccc3)c1)OC1(C=C2)Oc2ccccc2C(=O)N1C (configuration not stated)	69.7	45.4	> 100	> 100	78.1	36.5	69.9	76.3	> 100	> 100	79.7
Cn1c2ccccc2c(=NNc2ccc(C(=O)O)cc2)c2ccccc21	45.6	38.9	56.2	31.8	50.1	57.4	49	48	78.4	> 100	62.4
CSC1=C(c2ccc(Cl)cc2)SC(N2CCCCC2)N1c1ccc([N+](=O)[O-])cc1 (configuration not stated)	> 100	89	41.8	> 100	77.1	75.9	> 100	> 100	61.2	> 100	> 100
CCOC(=O)CCC(NC(=O)c1ccc(N2CCN(c3c(C)nc(N)nc3N)CC2)cc1)C(=O)OCC (configuration not stated)	> 100	> 100	> 100	> 46	> 100	> 100	> 100	> 100	> 100	> 24.7	> 100
O=C1CCCCc2cccc(O)c21	> 100	> 100	> 100	> 100	> 100	> 100	> 100	> 100	> 100	> 100	> 100
